Experimental data as given in DBAASP.
Values after ≈ are worked out from the molar mass of the structure shown. Values joined by “and” are separate entries in the source; they are usually repeats but may differ in a detail not shown here. Identical values can stand only once.

How the values were obtained:
Experiment in all cases: ≥ marks a high value that may be exact or a test limit, other limits are often not marked, values filed in µg/mL are converted to µM
[1] = test system: Klebsiella aerogenes LMG 02094
[2] = test system: Pseudomonas aeruginosa LMG 6395
[3] = test system: Escherichia coli LMG 15862
[4] = test system: Klebsiella pneumoniae LMG 20218
[5] = test system: Acinetobacter baumannii LMG 01041
[6] = test system: Enterococcus faecalis ATCC 29212
[7] = test system: Shigella dysenteriae CMCC 51252
[8] = test system: Klebsiella pneumoniae CMCC 46117
[9] = test system: Shigella flexneri CMCC 51572
[10] = test system: Staphylococcus aureus ATCC 25923
[11] = test system: Escherichia coli ATCC 25922 ΔsbmA
[12] = test system: Shigella flexneri ATCC 12022
[13] = test system: Klebsiella pneumoniae ATCC 10031
[14] = test system: Bacillus subtilis ATCC 63501
[15] = test system: Salmonella typhimurium CMCC 50115
[16] = test system: Escherichia coli K88
[17] = test system: Salmonella enterica ATCC H9812
[18] = test system: Fusarium oxysporum KCTC 16909
[19] = test system: Candida albicans KCTC 7270
[20] = test system: Candida parapsilosis CCARM 14016
[21] = test system: Fusarium verticillioides KCTC 6149
[22] = test system: Candida tropicalis KCTC 7221
[23] = test system: Candida krusei CCARM 14017
[24] = test system: Escherichia coli NEB5alpha
[25] = test system: Bacillus subtilis ATCC 6051
[26] = test system: Candida tropicalis ATCC 750
[27] = test system: Staphylococcus aureus ATCC 43300
[28] = test system: Pseudomonas aeruginosa ATCC 27853
[29] = test system: Staphylococcus aureus VRSA1
[30] = test system: Bacillus megaterium ATCC 13632
[31] = test system: Candida albicans ATCC 90028
[32] = test system: Cryptococcus neoformans ATCC 208821
[33] = test system: Enterococcus faecium ATCC 35667
[34] = test system: Klebsiella pneumoniae ATCC 700603
[35] = test system: Pseudomonas aeruginosa ATCC 15442
[36] = test system: Acinetobacter baumannii ATCC 19606
[37] = test system: Bacillus subtilis CCT 2576
[38] = test system: Streptococcus pneumoniae ATCC 700677
[39] = test system: Staphylococcus aureus ATCC 6538
[40] = test system: Staphylococcus aureus ATCC 29213
[41] = test system: Klebsiella aerogenes ATCC 13048
[42] = test system: Escherichia coli MG1655 ΔrecA
[43] = test system: Escherichia coli MG1655

CC[C@H](C)[C@H](NC(=O)[C@H](CCCN=C(N)N)NC(=O)[C@H](CCC(N)=O)NC(=O)[C@@H](NC(=O)[C@@H](NC(=O)[C@@H](N)CCCN=C(N)N)[C@@H](C)CC)C(C)C)C(=O)N[C@@H](CCCCN)C(=O)N[C@@H](CCCCN)C(=O)N[C@@H](Cc1c[nH]c2ccccc12)C(=O)N[C@@H](CC(C)C)C(N)=O [RIVQRIKKWL]
MIC [1]: ≥ 256 µM | MIC [2]: 16 µM (≈ 21.4 µg/mL) | MIC [3]: ≥ 32 µM | MIC [4]: ≥ 64 µM | MIC [5]: ≥ 128 µM

CC[C@H](C)[C@H](NC(=O)[C@@H]1CCCN1C(=O)[C@H](CCCN=C(N)N)NC(=O)[C@@H]1CCCN1C(=O)[C@H](CCCN=C(N)N)NC(=O)[C@@H]1CCCN1C(=O)[C@H](CC(C)C)NC(=O)[C@H](Cc1ccc(O)cc1)NC(=O)[C@@H]1CCCN1C(=O)[C@@H]1CCCN1C(=O)[C@H](CCCCN)NC(=O)[C@H](CC(=O)O)NC(=O)[C@@H](N)C(C)C)C(=O)N[C@@H](CCCN=C(N)N)C(=O)N[C@@H](CCCN=C(N)N)C(=O)N1CCC[C@H]1C(=O)NCC(=O)NCC(=O)N[C@@H](CCCN=C(N)N)C(N)=O [VDKPPYLPRPRPIRRPGGR]
MIC [6]: > 512 µM | MIC [7]: 4 µM and 2 µM | MIC [8]: ≥ 256 µM | MIC [9]: 2 µM (≈ 4.45 µg/mL) | MIC [10]: > 512 µM | MIC [11]: ≥ 256 µM | MIC [12]: 1 µM (≈ 2.23 µg/mL) | MIC [13]: ≥ 256 µM | MIC [14]: ≥ 512 µM | MIC [15]: 1 µM and 2 µM | MIC [16]: 2 µM (≈ 4.45 µg/mL) | MIC [17]: 2 µM (≈ 4.45 µg/mL)

CC[C@H](C)[C@H](NC(=O)[C@H](C)NC(=O)[C@H](CCC(=O)O)NC(=O)[C@H](Cc1cnc[nH]1)NC(=O)[C@H](CCCCN)NC(=O)CNC(=O)[C@H](CCC(N)=O)NC(=O)[C@H](CCCCN)NC(=O)[C@@H](NC(=O)[C@H](CCCCN)NC(=O)[C@H](CCCCN)NC(=O)[C@H](CC(C)C)NC(=O)[C@H](C)NC(=O)[C@H](CC(N)=O)NC(=O)[C@H](CC(C)C)NC(=O)CN)C(C)C)C(=O)N[C@@H](CCCCN)C(=O)N[C@@H](CC(C)C)C(=O)N[C@H](C(=O)N[C@@H](CC(N)=O)C(=O)N[C@@H](CC(N)=O)C(=O)N[C@@H](Cc1cnc[nH]1)C(=O)N[C@H](C(=O)N[C@@H](CCC(N)=O)C(N)=O)C(C)C)[C@@H](C)CC [GLNALKKVKQGKHEAIKLINNHVQ]
MIC [18]: 6 µM and 16 µM | MIC [19]: ≥ 64 µM | MIC [20]: ≥ 64 µM | MIC [21]: ≥ 64 µM | MIC [22]: 8 µM and 16 µM | MIC [23]: ≥ 48 µM and 16 µM

CC[C@H](C)[C@H](NC(=O)[C@H](C)NC(=O)CNC(=O)[C@H](CCCCN)NC(=O)[C@H](CCC(=O)O)NC(=O)[C@H](CCC(=O)O)NC(=O)[C@H](CC(=O)O)NC(=O)[C@H](CCC(=O)O)NC(=O)[C@H](CC(=O)O)NC(=O)[C@H](CCCN=C(N)N)NC(=O)CNC(=O)[C@H](CCC(N)=O)NC(=O)[C@H](CC(C)C)NC(=O)[C@H](CCCCN)NC(=O)[C@H](CC(=O)O)NC(=O)[C@@H](NC(=O)[C@@H](NC(=O)[C@H](Cc1cnc[nH]1)NC(=O)[C@H](CCCN=C(N)N)NC(=O)[C@H](CC(N)=O)NC(=O)[C@@H](N)C(C)C)[C@@H](C)CC)C(C)C)C(=O)N[C@H](C(=O)N[C@@H](CCCCN)C(=O)N[C@H](C(=O)N[C@@H](CCCCN)C(=O)NCC(=O)NCC(=O)N[C@@H](CC(C)C)C(=O)O)C(C)C)C(C)C [VNRHIVDKLQGRDEDEEKGAIVKVKGGL]
MIC [24]: ≥ 500 µM | MIC [25]: ≥ 500 µM

CC[C@H](C)[C@H](N)C(=O)N[C@@H](CC(N)=O)C(=O)N[C@@H](Cc1c[nH]c2ccccc12)C(=O)N[C@@H](CC(C)C)C(=O)N[C@@H](CCCCN)C(=O)N[C@@H](CC(C)C)C(=O)NCC(=O)N[C@@H](CCCCN)C(=O)N[C@@H](C)C(=O)N[C@H](C(=O)N[C@H](C(=O)N[C@@H](CC(=O)O)C(=O)N[C@@H](C)C(=O)N[C@@H](CC(C)C)C(N)=O)[C@@H](C)CC)[C@@H](C)CC [INWLKLGKAIIDAL]
MIC [26]: 1.28 µM (≈ 2 µg/mL) | MIC [27]: 5.1 µM (≈ 8 µg/mL) | MIC [28]: 115 µM (≈ 181 µg/mL) | MIC [29]: 3.61 µM (≈ 5.65 µg/mL) | MIC [30]: 2.55 µM (≈ 4 µg/mL) | MIC [31]: 7.22 µM (≈ 11.3 µg/mL) | MIC [32]: 2.55 µM (≈ 4 µg/mL) | MIC [33]: 3.61 µM (≈ 5.65 µg/mL) | MIC [34]: 81.6 µM (≈ 128 µg/mL) | MIC [35]: ≥ 164 µM | MIC [36]: 5.1 µM (≈ 8 µg/mL) | MIC [37]: ≥ 151 µM | MIC [38]: 5.1 µM (≈ 8 µg/mL) | MIC [39]: 122 µM (≈ 191 µg/mL) | MIC [25]: 2.55 µM (≈ 4 µg/mL) | MIC [40]: 5.1 µM (≈ 8 µg/mL)

CC(C)C[C@H](NC(=O)CNC(=O)[C@H](C)NC(=O)[C@H](CCCN=C(N)N)NC(=O)[C@H](Cc1cnc[nH]1)NC(=O)[C@@H](NC(=O)[C@@H](N)CCCN=C(N)N)[C@@H](C)O)C(=O)N[C@@H](CCC(N)=O)C(=O)N[C@@H](Cc1ccccc1)C(=O)N1CCC[C@H]1C(=O)N[C@H](C(=O)NCC(=O)N[C@@H](CCCN=C(N)N)C(=O)N[C@H](C(=O)N[C@@H](Cc1cnc[nH]1)C(=O)N[C@@H](CCCN=C(N)N)C(=O)N[C@@H](CC(C)C)C(=O)N[C@@H](CC(C)C)C(=O)N[C@@H](CCCN=C(N)N)C(=O)N[C@@H](CCCCN)C(N)=O)C(C)C)C(C)C [RTHRAGLQFPVGRVHRLLRK]
MIC [41]: ≥ 64 µM | MIC [42]: 16 µM (≈ 38.4 µg/mL) | MIC [43]: ≥ 32 µM
